Source: US20120028995A1, “NOVEL COMPOUNDS FOR MEDICAL USE AS PEPTIDASE EFFECTORS” (IMTM GMBH, priority 2010, published 2012)
Read-outs that look alike come from different tables or passages of the source.

Columns and labels:
[1] = test system: T lymphocytes (T cells); assay: Suppression of DNA synthesis of PHA-stimulated T lymphocytes; assay type: cell-based; conditions: tritium thymidine incorporation, read-out: Supp. DNA Synt. T-cell IC50
Method: Peripheral blood mononuclear cells (PBMC) from healthy human volunteers were freshly isolated by density gradient centrifugation. T lymphocytes (T cells) were isolated from PBMC fractions via nylon wool adherence. Both cell populations were cultured in serum free lymphocyte medium (AIMV medium, Invitrogen) and stimulated by addition of 1 μg/ml Phytohemagglutinine for 48 hours in 96 well flat-bottom microtiter plates. Test compounds were added at concentration ranges from 0.1 up to 250 μM over the total assay period.
DNA synthesis of proliferating PBMC was assessed by incorporation of nucleotide analogue bromdesoxyuridine (BrdU) and subsequent detection of BrdU by ELISA technique (Cell Proliferation Biotrak™ ELISA system, GE Health Care) according to the protocol of the manufacturer. DNA synthesis of proliferating T cells was determined by incorporation of radio labelled tritium thymidine and subsequent radio detection.
Data output was based on raw data and calculation of relative proliferation response in relation to PHA-activated T cells in the absence of test compound (100% control). The IC50 value of proliferation suppression was assessed by graphical evaluation.

[2] = target: T1, cytosolic aminopeptidase (cAAP) purified from Jurkat cells (Homo sapiens, UniProt P55786); assay: Inhibition of enzymatic activity of cytosolic aminopeptidase (cAAP); assay type: biochemical; conditions: highest test item concentration 25 μM; for IC50: read-out: meas. IC50 (cAAP)
T1 construct: The cytosolic aminopeptidase (cAAP) was purified from Jurkat cells; endogenous in cells; host or cells: Jurkat cells (enzyme purified from them)

[3] = test system: purified, recombinant DP8 and DP9; assay: Inhibition of enzymatic activity of DP8/9; assay type: biochemical; conditions: highest test item concentration 25 μM; for IC50: read-out: meas. IC50 (DP8/9)
Method: (§1) The inhibition of the enzymatic activity of DPIV and related enzymes was measured by using purified, recombinant human DPIV (purified from transfected Sf9 cells, final enzyme concentration approx. 1 nM) as well as purified, recombinant DP8 and DP9 (purchased from Biomol). The assay was performed in 0.05M TRIS/HCl puffer pH 7.5, supplemented with 0.05% Triton (v/v), 0.05% BSA (w/v), 2 mM MgCl2.
(§2) The enzymatic activity of DPIV was assessed by the hydrolysis of the fluorogenic substrates H-Gly-Pro-4-amino-7-methyl coumarine (abbreviation of fluorogenic group AMC; purchased from Bachem) or (Ala-Pro)2-Rhodamine 110 (abbreviation R110). The final substrate concentrations were 50 μM or 1 μM, respectively.
(§3) The assay was performed in white microtitre plates for fluorescence measurements. The test items, substrate and enzyme were diluted in assay buffer. The highest test item concentration used was 25 μM. For the calculation of IC50 values, at least 16 log 2-dilutions of each test item were analyzed. As controls, the DPIV activity in the absence of test items as well as the spontaneous hydrolysis of the substrate was determined.
(§4) The release of the fluorescent hydrolysis product AMC was measured at an excitation wavelength of 380 nm and an emission wavelength of 460 nm by using a microtitre fluorescence reader immediately after substrate addition as well as after 30, 60 and 120 min. The hydrolysis of the substrate (Ala-Pro)2-Rhodamine 110 was determined at an exitation wavelength of 488 nm and emission wavelength of 530 nm.

[4] = test system: SZ95 cells; assay: Inhibition of DNA synthesis and proliferation of immortalized human sebocytes SZ95; assay type: cell-based; conditions: EGF-stimulated SZ95 sebocytes, tritium thymidine incorporation, read-out: Supp. DNA Synt. SZ95 IC50
Method: The immortalized human sebocyte line SZ95 was provided by Prof. C Zouboulis [C C Zouboulis, H Seltmann, H Neitzel, C E Orfanos, Establishment and characterization of an immortalized human sebaceous gland cell line (SZ95). J. Invest. Dermatol. 113(6):1011-1020 (1999), the entire disclosure of which is incorporated by reference herein]. These adherent growing cells were cultured in serum-free Sebomed Complete (Biochrom). Recombinant EGF was added in order to stimulate DNA synthesis and proliferation of the SZ95 cells. Test items were added in concentrations from 0.1 up to 100 μM.
The DNA synthesis of proliferating cells was detected by incorporation of radiolabelled tritium thymidine (3HT) and counting at a beta counter. Based on these raw data the relative proliferation response in relation to cells cultured in the absence of test compound (100% control) was calculated. IC50 values of proliferation suppression were assessed by computer-assisted graphical evaluation.

[5] = test system: NHEK cells; assay: Inhibition of DNA synthesis and proliferation of normal human epidermal keratinocytes (NHEK); assay type: cell-based; conditions: EGF-stimulated NHEK, BrdU incorporation, read-out: Supp. DNA Synt. NHEK IC50
Method: NHEK cells (primary cells from person) were purchased from PromoCell. For these assay the adherent cells were cultured in serum-free Keratinocyte Growth medium 2 supplemented with epidermal growth factor (EGF) and bovine pituitary extract for 48 hours in flat-bottom microtiter plates. EGF stimulates the DNA synthesis and proliferation of these cells. Test items were added in concentrations from 0.1 up to 100 μM.
The DNA synthesis was assessed by incorporation of bromdesoxyuridine (BrdU) and subsequent detection of BrdU by ELISA technique. Based on these raw data the relative proliferation response in relation to cells cultured in the absence of test compound (100% control) was calculated. IC50 values of proliferation suppression were assessed by computer-assisted graphical evaluation.

[6] = target: T2, aminopeptidase N (APN), purified recombinant human enzyme (Homo sapiens, UniProt P15144); assay: Inhibition of enzymatic activity of aminopeptidase N (fluorogenic substrate hydrolysis); assay type: biochemical; conditions: highest test item concentration 25 μM; for IC50: read-out: meas. IC50 (APN)
T2 construct: made in house; host or cells: ECV cells (transfected)
Method: The inhibition of the enzymatic activity of aminopeptidase N (APN) was measured by using purified, recombinant human enzyme (purified from transfected ECV cells, final enzyme concentration approx. 1 nM). […] The assay was performed in 0.05M TRIS/HCl puffer pH 7.5, supplemented with 0.05% Triton (v/v), 0.05% BSA (w/v), 2 mM MgCl2.
The aminopeptidase acitivities wer assessed by the hydrolysis of the fluorogenic substrates H-Ala-4-amino-7-methyl coumarine (abbreviation of fluorogenic group AMC; purchased from Bachem) or (Ala-)2-Rhodamine 110 (abbreviation R110). The final substrate concentrations were again 50 and 1 μM, respectively.
as §3
The release of the fluorescent hydrolysis products AMC and R110 was measured as described above for DPIV substrates.

[7] = target: T3, purified, recombinant human DPIV (Homo sapiens, UniProt P27487); assay: Inhibition of enzymatic activity of DPIV (fluorogenic substrate hydrolysis); assay type: biochemical; conditions: highest test item concentration 25 μM; for IC50: read-out: meas. IC50 (DPIV)
T3 construct: made in house; host or cells: Sf9 insect cells
Method: as §1, §2, §3, §4

[8] = PHA-stimulated human T cells, 48 hours

T1 sequence (P55786 whole entry): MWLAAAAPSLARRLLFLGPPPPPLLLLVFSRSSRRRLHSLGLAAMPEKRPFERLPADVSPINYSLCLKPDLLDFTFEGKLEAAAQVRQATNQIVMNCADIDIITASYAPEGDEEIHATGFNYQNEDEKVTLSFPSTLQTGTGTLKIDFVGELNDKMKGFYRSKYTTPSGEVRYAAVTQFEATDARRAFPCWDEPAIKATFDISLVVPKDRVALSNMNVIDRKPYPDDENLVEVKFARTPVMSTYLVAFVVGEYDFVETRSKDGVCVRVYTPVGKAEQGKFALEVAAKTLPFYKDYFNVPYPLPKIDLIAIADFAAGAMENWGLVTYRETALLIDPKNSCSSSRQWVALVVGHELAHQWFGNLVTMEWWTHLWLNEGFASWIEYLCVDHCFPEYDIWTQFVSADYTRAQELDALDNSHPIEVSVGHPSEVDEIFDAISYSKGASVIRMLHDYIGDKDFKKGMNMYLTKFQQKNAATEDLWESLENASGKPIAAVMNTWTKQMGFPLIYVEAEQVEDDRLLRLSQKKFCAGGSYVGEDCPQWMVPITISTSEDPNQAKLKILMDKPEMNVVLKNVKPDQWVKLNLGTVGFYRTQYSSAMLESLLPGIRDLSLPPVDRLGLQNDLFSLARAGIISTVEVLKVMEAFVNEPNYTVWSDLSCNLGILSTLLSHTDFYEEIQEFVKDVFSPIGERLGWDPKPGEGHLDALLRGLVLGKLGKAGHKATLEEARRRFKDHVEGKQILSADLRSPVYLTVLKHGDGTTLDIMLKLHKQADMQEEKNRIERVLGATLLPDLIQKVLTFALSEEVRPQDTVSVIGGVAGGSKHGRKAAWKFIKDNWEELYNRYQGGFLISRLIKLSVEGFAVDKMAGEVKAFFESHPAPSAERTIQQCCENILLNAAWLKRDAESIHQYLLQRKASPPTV
T2 sequence (P15144 whole entry): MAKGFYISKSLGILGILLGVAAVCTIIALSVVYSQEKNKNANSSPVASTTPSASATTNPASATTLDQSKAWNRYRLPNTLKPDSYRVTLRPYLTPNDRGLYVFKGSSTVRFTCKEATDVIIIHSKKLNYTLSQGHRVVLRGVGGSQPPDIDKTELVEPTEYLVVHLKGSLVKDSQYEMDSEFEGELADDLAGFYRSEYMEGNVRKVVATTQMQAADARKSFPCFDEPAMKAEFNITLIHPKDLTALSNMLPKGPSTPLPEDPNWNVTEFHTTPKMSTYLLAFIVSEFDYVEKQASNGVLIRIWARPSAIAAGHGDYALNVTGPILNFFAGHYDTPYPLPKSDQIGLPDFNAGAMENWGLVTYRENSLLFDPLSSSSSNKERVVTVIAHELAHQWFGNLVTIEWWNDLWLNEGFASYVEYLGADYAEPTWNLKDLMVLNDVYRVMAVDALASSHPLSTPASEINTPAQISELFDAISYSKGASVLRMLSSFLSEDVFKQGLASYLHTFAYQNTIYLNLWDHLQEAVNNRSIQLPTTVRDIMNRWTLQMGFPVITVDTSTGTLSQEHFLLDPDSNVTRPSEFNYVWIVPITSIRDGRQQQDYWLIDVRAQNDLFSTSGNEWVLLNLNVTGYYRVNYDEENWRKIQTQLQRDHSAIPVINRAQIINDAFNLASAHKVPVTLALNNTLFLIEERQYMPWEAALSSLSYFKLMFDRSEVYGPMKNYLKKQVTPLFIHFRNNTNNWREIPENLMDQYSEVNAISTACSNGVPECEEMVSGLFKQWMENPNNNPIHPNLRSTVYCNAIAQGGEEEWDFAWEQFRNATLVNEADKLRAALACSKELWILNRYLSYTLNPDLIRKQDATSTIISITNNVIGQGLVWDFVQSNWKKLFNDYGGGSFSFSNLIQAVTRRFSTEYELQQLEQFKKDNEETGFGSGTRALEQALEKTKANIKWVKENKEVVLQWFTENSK
T3 sequence (P27487 whole entry): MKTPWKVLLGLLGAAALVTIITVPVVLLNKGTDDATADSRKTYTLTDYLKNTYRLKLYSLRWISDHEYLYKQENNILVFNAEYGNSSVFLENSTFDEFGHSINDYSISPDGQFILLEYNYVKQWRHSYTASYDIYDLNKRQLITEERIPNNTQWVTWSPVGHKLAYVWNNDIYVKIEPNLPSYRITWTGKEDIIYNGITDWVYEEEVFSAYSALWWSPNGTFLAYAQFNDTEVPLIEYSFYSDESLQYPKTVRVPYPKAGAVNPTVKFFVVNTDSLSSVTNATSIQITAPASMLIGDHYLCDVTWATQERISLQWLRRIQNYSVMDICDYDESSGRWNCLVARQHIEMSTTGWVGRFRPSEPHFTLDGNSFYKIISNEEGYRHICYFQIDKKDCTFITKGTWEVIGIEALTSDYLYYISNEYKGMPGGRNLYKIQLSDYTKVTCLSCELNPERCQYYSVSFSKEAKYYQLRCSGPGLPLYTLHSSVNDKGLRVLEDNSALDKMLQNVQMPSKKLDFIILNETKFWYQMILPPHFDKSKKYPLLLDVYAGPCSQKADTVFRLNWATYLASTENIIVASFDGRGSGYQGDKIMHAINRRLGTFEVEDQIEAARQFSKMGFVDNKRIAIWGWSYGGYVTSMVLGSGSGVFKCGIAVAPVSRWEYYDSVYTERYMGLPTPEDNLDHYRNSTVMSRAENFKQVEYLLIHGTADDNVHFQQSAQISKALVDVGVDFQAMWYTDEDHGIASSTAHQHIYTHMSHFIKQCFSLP

SMILES | IC50 ([1]; Homo sapiens, T-cell, 48 h) [µM] | IC50 [2] [nM] | meas. IC50 (DP8/9) [3] | IC50 ([4]; Homo sapiens) [µM] | IC50 ([5]; Homo sapiens, NHEK, 48 h) [µM] | meas. IC50 (APN) [6] | meas. IC50 (DPIV) [7] | meas. IC50 (cAAP) [2] | IC50 [3] [µM] | IC50 [6] [nM] | IC50 [7] [nM] | IC50 [1, 8] [µM] | IC50 [4] [µM] | IC50 ([5]; 48 hours) [µM]
CC(=O)SC(C(=O)NCCCCC(NC(=O)OC(C)(C)C)C(=O)N1CCSC1)C(Cc1ccccc1)NC(=O)OC(C)(C)C (centres unmarked) [Compound C22.001] | 136 | 570 | no in- hibition | 57.1 | ≥ 200 | no in- hibition | no in- hibition |  |  |  |  |  |  | 
CCCCCC(=O)NC(CC(=O)NCC(C)(C)CNC(=O)C(O)C(COCc1ccc(OC)cc1)NC(=O)CCCCC)Cc1cc(F)ccc1F (centres unmarked) [Compound C19.013] | 6.5 |  | no in- hibition | 17.4 | 15.3 | no in- hibition | no in- hibition | no in- hibition |  |  |  |  |  | 
NC(CNC(=O)c1cccc(NC(=O)C(O)C(N)COCc2ccccc2)c1)Cc1cc(F)ccc1F (centres unmarked) [Compound C19.031] | 58.2 | 180 |  | ≥ 119 | 20.1 |  |  |  | 13.3 | 12 | 2300 |  |  | 
CC(C)[C@@H]1CC[C@@H](C)CC1OC(=O)CC(Cc1cc(F)ccc1F)NC(=O)OC(C)(C)C (some centres unmarked) [Compound C-122] | 5.83 |  | no in- hibition | 65.2 | 69.4 | no in- hibition | no in- hibition | no in- hibition |  |  |  |  |  | 
CC(C)(CNC(=O)CC(Cc1cc(F)ccc1F)NC(=O)OC(C)(C)C)CNC(=O)C(O)C(COCc1ccccc1)NC(=O)OC(C)(C)C (centres unmarked) [Compound C19.024] |  |  | no in- hibition |  |  | no in- hibition | No in- hibition | no in- hibition |  |  |  | 11.4 | 13.3 | 21.1
CC(C)(CNC(=O)CC(Cc1cc(F)ccc1F)NC(=O)OC(C)(C)C)CNC(=O)C(OC(=O)C(C)(C)C)C(COCc1ccccc1)NC(=O)OC(C)(C)C (centres unmarked) [Compound C19.019] | 122 |  | no in- hibition | 70.6 | ≥ 131 | no in- hibition | no in- hibition | no in- hibition |  |  |  |  |  | 
CC(C)(CNC(=O)CC(Cc1cc(F)ccc1F)NC(=O)OC(C)(C)C)CNC(=O)C(O)C(COCc1ccccc1)NC(=O)OC(C)(C)C (centres unmarked) [Compound C19.025] |  |  | no in- hibition |  |  | no in- hibition | No in- hibition | no in- hibition |  |  |  | 12.3 | 15.4 | 17.3
CC(C)(CNC(=O)CC(Cc1cc(F)ccc1F)NC(=O)OC(C)(C)C)CNC(=O)C(O)C(COCc1ccccc1)NC(=O)OC(C)(C)C (centres unmarked) [Compound C19.023] | 11.5 |  | no in- hibition | 15.9 |  | no in- hibition | No in- hibition | no in- hibition |  |  |  |  |  | 41
CCCC(=O)NC(CC(=O)NCC(C)(C)CNC(=O)C(O)C(COCc1ccccc1)NC(=O)CCC)Cc1cc(F)ccc1F (centres unmarked) [Compound C19.017] | 30.5 |  | no in- hibition | ≥ 173 | 64.6 | no in- hibition | no in- hibition | no in- hibition |  |  |  |  |  | 
CC(C)(CNC(=O)CC(Cc1cc(F)ccc1F)NC(=O)OCc1ccccc1)CNC(=O)C(O)C(COCc1ccccc1)NC(=O)OC(C)(C)C (centres unmarked) [Compound C19.027] | 5.2 |  | no in- hibition | 8.53 | 42.1 | no in- hibition | No in- hibition | no in- hibition |  |  |  |  |  | 
NC(CCCCNC(=O)c1cccc(NC(=O)C(O)C(N)Cc2ccccc2)c1)C(=O)N1CCSC1 (centres unmarked) [Compound C21.003] | 157 | 130 |  | ≥ 200 | 62 |  |  |  | 0.054 | 620 | 70 |  |  | 
